PubChem BioAssay (NCI)
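Results reflect a 48-hour exposure of cells in 96-well plates to compound at five concentrations. GI50 is the concentration that inhibits growth by half. TGI: total growth inhibition.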

Legend:
Test in all cases: NCI anticancer screen, dose series, 48 h
[1] = tested on: BT-549 breast
[2] = tested on: HCT-116 colon
[3] = tested on: MOLT-4 leukemia
[4] = tested on: DU-145 prostate
[5] = tested on: MDA-N
[6] = tested on: UACC-62 melanoma
[7] = tested on: SK-OV-3 ovarian
[8] = tested on: HOP-62 NSCLC
[9] = tested on: T-47D breast
[10] = tested on: EKVX NSCLC
[11] = tested on: K-562 leukemia
[12] = tested on: PC-3 prostate
[13] = tested on: COLO 205 colon
[14] = tested on: SK-MEL-2 melanoma
[15] = tested on: SR leukemia
[16] = tested on: A498 renal

SMILES | TGI [1] [µM] | TGI [2] [µM] | TGI [3] [µM] | TGI [4] [µM] | TGI [5] [µM] | TGI [6] [µM] | TGI [7] [µM] | TGI [8] [µM] | TGI [9] [µM] | TGI [10] [µM] | TGI [11] [µM] | TGI [12] [µM] | TGI [13] [µM] | TGI [14] [µM] | TGI [15] [µM] | TGI [16] [µM] | GI50 [3] [µM] | GI50 [10] [µM] | GI50 [11] [µM]
Cc1cc(NS(=O)(=O)c2ccc(Nc3c4ccccc4nc4ccc(C(=O)Nc5ccc(S(N)(=O)=O)cc5)cc34)cc2)no1 | > 100 | > 100 | > 100 | > 100 | > 100 | > 100 | > 100 | > 100 | > 100 | > 100 | > 100 | > 100 | > 100 | > 100 | > 100 | > 100 |  |  | 
CC1OC(OC2C(O)COC(OC3C(C)OC(OC4C(OC(=O)[C@]56CCC(C)(C)C[C@@H]5C5=CCC7[C@@]8(C)C[C@H](O)[C@H](OC9OC(CO)C(O)C(OC%10OC(CO)C(O)C(O)C%10O)C9O)[C@@](C)(CO)[C@@H]8CC[C@@]7(C)[C@]5(C)CC6)OCC(O)C4O)C(O)C3O)C2O)C(O)C(O)C1O (stereo partly drawn) | 40.7 | 32.7 | 36.5 | 29 | 32 | 39.8 | 30.3 | 28.8 | 35.5 | 26.1 | > 100 | 23.9 | 18.1 | 36 | 25.8 | 26 |  |  | 
NC(=Nc1ccc(O)cc1)S(=O)O | > 100 | > 100 | > 100 | > 100 | > 100 | > 100 | > 100 | > 100 | > 100 | > 100 | > 100 | > 100 | > 100 | > 100 | > 100 | > 100 |  |  | 
C=CCNC1=C2C[C@@H](C)C[C@@H](OC)[C@H](OC(=O)CN)[C@H](C)/C=C(\C)[C@@H](OC(N)=O)[C@H](OC)/C=C\C=C(/C)C(=O)NC(=CC1=O)C2=O | 28.3 | 14.4 | > 36.1 | > 40.9 | 13 | 12 | 12.5 | 19.9 | > 25.5 | 21.7 | > 47.4 | 11.9 | 5.23 | 18.7 | > 40 | 28.4 |  |  | 
C=CCOC(=O)[C@@H]1C[C@@H](OC(C)(C)C)CN1C(=O)[C@@H]1[C@H]2OC(C)(C)O[C@H]2CN1C(=O)OCC1c2ccccc2-c2ccccc21 | 37.1 | 31.8 | 34.4 | 8.12 | 33.4 | 34.5 | 31.6 | 4.51 | 45 | 10.6 | > 56.9 | 30.8 | 45.7 | > 55 | 31.7 | 30.5 |  |  | 
C=CC[C@@]1(C)CCCCCCCCC[C@@](C)(CC=C)C1=O | 62.3 | > 100 | 43.2 | > 100 | > 100 | 67.5 | > 100 | > 100 | 60.9 | > 100 | 74.5 | > 100 | 42.3 | 37.9 | 63.7 | 36.4 |  |  | 
CN1CCC23c4c5ccc(O)c4OC2c2[nH]c4ccccc4c2CC3(O)C1C5 (stereo not drawn) | > 100 | > 100 | 93.6 | > 100 | 44.9 | 53.5 | > 100 | > 100 | 46.9 | > 100 | 44.4 | > 100 | 33.1 | 39.9 | > 100 | 38 |  |  | 
O=C(Nc1ccccc1F)c1cc2ccc(O)cc2oc1=Nc1cccc(C(F)(F)F)c1 | 8.42 | 18.1 | 67.8 | > 100 | > 100 | 21 | 35.2 | 53.7 | 15.8 | 10.6 | > 100 | > 100 | 33 | 36 | 17.7 | 38.3 |  |  | 
NC(N)=NCCCC(NC(=O)OCCCCCCn1ccc(N)nc1=O)C(=O)O (stereo not drawn) | > 100 | > 100 | > 100 | > 100 | > 100 | > 100 | > 100 | > 100 | > 100 | > 100 | > 100 | > 100 | > 100 | > 100 | > 100 | > 100 |  |  | 
COc1cc(/C=C/c2cc(/C=C/c3ccc(O)c(OC)c3)oc(=O)c2)ccc1O | 12.2 | > 65.8 | > 26.2 | 6.82 | > 100 | 18.5 | > 65.2 | 27.2 | 4.86 | > 36.2 | > 28 | 20.3 | > 73.2 | > 65.9 | > 31.2 | 13.6 |  |  | 
C=CC(C)CCC(C/C=C(\C)CCC=C(C)C)C(=C)CCCC(C)C (stereo not drawn) | > 100 | > 100 | > 100 | > 100 | > 100 | > 100 | > 100 | > 100 | > 100 | > 100 | > 100 | > 100 | > 100 | > 100 | > 100 | > 100 |  |  | 
COc1cc2c(cc1OCc1ccccc1)NC(=S)[C@@H]1CCCN1C2=S | > 100 | > 100 | > 100 | > 100 | > 100 | > 100 | > 100 | 66.2 | > 100 | > 100 | > 100 | > 100 | > 100 | > 100 | > 100 | > 100 |  |  | 
COc1cc2c(cc1O)[C@@H]1Cc3c(cc(OC)c(OC)c3Oc3cc4c(cc3OC)CCN(C)[C@@H]4Cc3ccc(O)cc3)[C@H](C2)N1C | 96.9 | > 100 | > 90.5 | > 100 | 38.3 | > 100 | > 100 | > 100 | > 100 | > 100 | 45.8 | > 100 | 38.2 | 53.3 | 19.3 | 80.4 |  |  | 
O=[N+]([O-])/C(C(Cl)=C(Cl)Cl)=C(/Sc1ccccc1)N1CCCCC1 | > 100 | > 100 | > 100 | > 100 | > 100 | > 100 | > 100 | > 100 | > 100 | > 100 | > 100 | > 100 | > 100 | > 100 | > 26.4 | > 100 |  |  | 
C=C1CN(Cc2ccccc2)[C@@H]2CCCCC[C@H](C#N)[C@H]12 | > 100 | > 100 | > 100 | > 100 | > 100 | > 100 | > 100 | > 100 | > 100 | > 100 | > 100 | > 100 | > 100 | > 100 | > 100 | > 100 |  |  | 
C[C@]12[C@@H]3CC[C@H]1[C@@H](OC(=O)Nc1cc([N+](=O)[O-])cc([N+](=O)[O-])c1)C(=O)N2CC3 | > 100 | > 100 | > 100 | > 100 | > 100 | > 100 | > 100 | > 100 | > 100 | > 100 | > 100 | > 100 | > 100 | > 100 | > 100 | > 100 |  |  | 
S=c1sc2nc(Cl)nc(Cl)c2s1 | 24 | 26 | > 29.3 | 30.9 | 24.8 | 27.1 | 31.6 | 36.9 | 31.9 | 31.8 | 28.1 | 27.9 | 20.4 | 23.8 | 21.2 | 32 |  |  | 
COc1cc2cc(C(=O)N3CC(CCl)c4ccccc43)[nH]c2c(OC)c1OC (stereo not drawn) | > 100 | > 100 | > 100 | > 100 | > 100 | > 100 | > 100 | > 92.1 | > 89.4 | > 100 | > 41.3 | > 100 | > 100 | > 100 | > 100 | > 100 |  |  | 
C=C1C(=O)O[C@H]2[C@H]1CC(=O)/C(C)=C/CC[C@@]1(C)O[C@@H]21 | 2 | 2.51 | 1.13 | 18.7 | 1.27 | 2.76 | 25.9 | 22 | 2.93 | 24.8 | 1.68 | 6.1 | 0.708 | 8.47 | 7.74 | 3.6 | 0.276 | 6.06 | 0.368
O=C(c1ccccc1)c1sc2c(=O)c(C(=O)c3ccccc3)c(C(=O)c3ccccc3)sc2c(=O)c1C(=O)c1ccccc1 | > 100 | > 100 | > 100 | > 100 | > 100 | > 100 | > 100 | > 100 | > 100 | > 100 | > 100 | > 100 | > 100 | > 100 | > 100 | > 100 |  |  | 
